# Measured values from BindingDB's records for doi:10.1021/jm960063l (Institute, 1996).
# What was measured:
# [1] = Inhibition of [3H]- RTX binding to Vanilloid receptors from pig spinal cord
# [2] = Inhibitory constant for RTX binding to porcine spinal cord
smiles,measurement,setting,value
"COc1cc(CC(=O)OCC2=C[C@H]3C4C(C)(C)[C@]4(OC(C)=O)[C@H](OC(=O)Cc4ccccc4)[C@@H](C)[C@]3(O)[C@@H]3C=C(C)C(=O)[C@@]3(O)C2)ccc1O (stereo partly drawn) [Phenyl-acetic acid (1aR,1bS,4aR,7aS,7bS,8R,9R,9aS)-9a-acetoxy-4a,7b-dihydroxy-3-[2-(4-hydroxy-3-methoxy-phenyl)-acetoxymethyl]-1,1,6,8-tetramethyl-5-oxo-1a,1b,4,4a,5,7a,7b,8,9,9a-decahydro-1H-cyclopropa[3,4]benzo[1,2-e]azulen-9-yl ester]",Ki,[1],2100 nM
same,Ki,[2],0.12 nM
